1 molecule from BindingDB's records for doi:10.1021/jm9606507 (Warner-Lambert, 1997) can be followed below.

This assay can be described thus: Inhibition of Endothelin A receptor mediated (ET-1) release of arachidonic acid from rabbit renal artery vascular smooth muscle cells.

For `COc1ccc(C(=O)/C(Cc2cc(OC)c(OC)c(OC)c2)=C(\C(=O)O)c2ccc3c(c2)OCO3)cc1C` [Sodium; (Z)-2-benzo[1,3]dioxol-5-yl-4-(4-methoxy-3-methyl-phenyl)-4-oxo-3-(3,4,5-trimethoxy-benzyl)-but-2-enoate], the IC50 (commonly the concentration at which inhibition is half-maximal) came to 0.98 nM.
